What was measured:
CAL33 cells = assay: Cell proliferation MTT assay; format: cell-based; details: Homo sapiens, CAL-33; CAL33, 48-h treatment; read-out: IC50 cell viability
Protocol: (§1) Cell proliferation was measured by MTT assay as previously described. The cells were seeded in a volume of 200 μL/well in 96-well plates. The next day, cells were treated with DMSO or a series of concentrations of KTC1101. After a 48-h incubation period, 20 μL of MTT (5 mg/mL) was added to each well. After further incubation for 4 h at 37 °C, the absorbance at 490 nm was measured using an iMark microplate reader (BIO-RAD, Hercules, CA, USA).

HSC4 cells = assay: Cell proliferation MTT assay; format: cell-based; details: Homo sapiens, HSC-4; HSC4, 48-h treatment; read-out: IC50 cell viability
Protocol: as §1

PC3 cells = assay: Cell proliferation MTT assay; format: cell-based; details: Homo sapiens, PC-3; PC3, 48-h treatment; read-out: IC50 cell viability
Protocol: as §1

B16 cells = assay: Cell proliferation MTT assay; format: cell-based, mouse; details: B16 cells in vitro, 48 h
Protocol: as §1

S24 cells = assay: Cell proliferation MTT assay; format: cell-based, mouse; details: 48 h
Protocol: as §1

tumor cell lines = assay: Apoptosis analysis; format: cell-based, human; details: tested cell lines, 48 h
DMS114 = assay: JFCR39 sulforhodamine B growth assay; format: cell-based; details: Homo sapiens, DMS-114; DMS114, 48 h
Protocol: (§2) JFCR39 drug discovery system was used to measure the growth inhibitory activities and identify the target of KTC1101. The JFCR39 panel consists of 39 cell lines seeded in 96-well plates. After 48-h treatment with KTC1101, cell growth was measured using the sulforhodamine B assay. […] The deviation of log GI50 for each cell line from the average log GI50 across the JFCR39 panel was plotted as a fingerprint. MG-MID (mean of Log GI50 values) represents the average log GI50 for all 39 cell lines. The most sensitive and least sensitive cell lines were identified by calculating the difference in their log GI50 values (Range) and the difference between the most sensitive cell line and the average GI50 on the JFCR39 panel (Delta). The fingerprint of KTC1101 was compared with the fingerprints of reference compounds in the database. The Pearson correlation coefficient (r) was calculated (n = 39).

HT-29 = assay: JFCR39 sulforhodamine B growth assay; format: cell-based; details: Homo sapiens, HT-29, 48 h
Protocol: as §2

MKN45 = assay: JFCR39 sulforhodamine B growth assay; format: cell-based; details: Homo sapiens, MKN-45; MKN45, 48 h
Protocol: as §2

MKN74 = assay: JFCR39 sulforhodamine B growth assay; format: cell-based; details: Homo sapiens, MKN-74; MKN74, 48 h
Protocol: as §2

OVCAR-4 = assay: JFCR39 sulforhodamine B growth assay; format: cell-based; details: Homo sapiens, OVCAR-4, 48 h
Protocol: as §2

SNB-78 = assay: JFCR39 sulforhodamine B growth assay; format: cell-based; details: Homo sapiens, SNB-78, 48 h
Protocol: as §2

U251 = assay: JFCR39 sulforhodamine B growth assay; format: cell-based; details: Homo sapiens, U-251; U251, 48 h
Protocol: as §2

PC3 tumors = assay: PC3 xenograft in BALB/c nude mice; format: in vivo, mouse
Protocol: (§3) BALB/c nude, NSG, and C57BL/6J mice were obtained from Tianjin Medical University. The housing temperature was controlled, ranging from 20.5–24 °C, and humidity was monitored but not controlled ranging from 30–70%. The 12-h daily light cycle was from 06:00 to 18:00. To generate a murine subcutaneous tumor model, PC3 and HSC2 cells were subcutaneously injected into the right lateral flank of 4- to 5-week-old male BALB/c nude mice. TMD8, CAL33, and S24 cells were subcutaneously injected into the right lateral flank of 4- to 5-week-old male NSG mice. When tumors reached a volume of 300–500 mm^3, they were excised, diced into 2 mm × 2 mm × 2 mm pieces, and implanted into the right flanks of BALB/c nude or NSG mice. Tumors were allowed to grow to a volume of 100 mm^3, and then the animals were randomly divided into several groups. Each group of five mice was treated with either vehicle or KTC1101 (25, 50, or 100 mg/kg, PO). Tumor size was measured every 3 d or 4 d until the endpoint. The tumor volume was calculated using the following formula: length × width × height/2. At the end of the experimental period, mice were euthanized by overdosing on pentobarbital sodium, and the tumors were removed. Tumor tissue was formalin-fixed and paraffin-embedded for histological analysis.

CAL33 tumors = assay: CAL33 xenograft in NSG mice; format: in vivo, mouse; details: 100 mg/kg PO
Protocol: as §3

B16 tumors = assay: B16 syngeneic model in C57BL/6 mice; format: in vivo, mouse
[1] = tested on: immune cell populations in B16 tumors; assay: Flow cytometry of tumor-infiltrating immune cells; format: in vivo, mouse; details: intermittent dosing
Protocol: To obtain single-cell suspensions for analysis by flow cytometry, tumors were excised, minced, and dissociated in Deoxyribonuclease/collagenase/hyaluronidase buffer (0.1 mg/mL Deoxyribonuclease I, 0.2 mg/mL Collagenase IV and 0.2 mg/mL Hyaluronidase) for 60 min at 37 °C with agitation, and strained through a 70 μm strainer for downstream applications. Tissue was dissociated as described above to obtain single-cell suspensions. Cells were stained with antibodies for 30 min at 4 °C, and then fixed and intracellularly stained using Foxp3/ Transcription Factor Staining Buffer Set (eBioscience) according to the manufacturer’s instructions. Antibodies used in this study can be found in Supplementary Table 2. The stained cells were acquired on a BD C6 Flow Cytometer using BD AccuriTM C6 Software (BD Biosciences) and the data were processed using FlowJo software.

p-Akt, p-S6, Ki67 = assay: H&E and immunohistochemical staining of xenograft tumors; format: in vivo, mouse; details: IHC, PC3 and TMD8 xenografts
Protocol: H&E and IHC staining were performed as previously described. H&E staining was used to detect pathological changes in morphology. For histological analysis, formalin-fixed, paraffin-embedded tumors were sectioned, and slides were deparaffinized using xylene (Thermo Fisher). Endogenous peroxidases were quenched with 3% hydrogen peroxide in methanol. Staining was performed using antibodies against phosphorylated Akt (Ser473), phosphorylated S6 (Ser235/236), or Ki67. Counterstaining was performed with Mayer’s hematoxylin (Dako). Slides were observed under an Olympus CX21 microscope and scanned with a high-resolution digital slide scanner (Pannoramic 250, 3DHistech) to capture images.

Which results are given for `COc1cc(N)cc2c1nc(C(F)F)n2-c1nc(N2CCCOCC2)nc(N2CCOCC2)n1` [KTC1101, 2-(difluoromethyl)-4-methoxy-1-(4-morpholino-6-(1,4-oxazepan-4-yl)-1,3,5-triazin-2-yl)-1H-benzo[d]imidazol-6-amine]?
IC50 (CAL33 cells): 0.124 µM; IC50 (HSC4 cells): 0.0506 µM; IC50 (PC3 cells): 0.0232 µM; anti-proliferative activity (B16 cells): strong anti-proliferative activity; sensitivity in vitro (S24 cells): showed sensitivity; induction of apoptosis (tumor cell lines): did not observe a potent induction of apoptosis except HSC2 cell line; GI50 (DMS114): 0.01 µM; GI50 (HT-29): 0.0617 µM; GI50 (MKN45): 0.162 µM; GI50 (MKN74): 0.0708 µM; GI50 (OVCAR-4): 0.0617 µM; GI50 (SNB-78): 0.0229 µM; GI50 (U251): 0.038 µM; tumor growth (PC3 tumors; 25 mg/kg PO): significant delay in tumor growth; efficacy in inhibiting PC3 tumors (PC3 tumors; 50 mg/kg PO): equivalent to 200 mg/kg ZSTK474; tumor growth (PC3 tumors; 100 mg/kg PO): Tumor growth arrest; tumor growth (CAL33 tumors): Tumor growth arrest; tumor growth over 14 days (B16 tumors; B16, 50 mg/kg, daily): comparably suppressed tumor growth; mouse body weight (B16 tumors; B16, 100 mg/kg 3 days on/4 days off and 50 mg/kg daily, 14 days): without significant changes in mouse body weight; tumor growth over 14 days (B16 tumors; B16, 100 mg/kg, 3 days on/4 days off): comparably suppressed tumor growth; mouse survival (B16 tumors; B16, intermittent regimen 100 mg/kg 3 days on/4 days off vs continuous): notably prolonged mouse survival; intratumoral T cell populations (FACS) [1]: increase in intratumoral CD8^+ T, CD4^+ T, and a reduction of Treg cells; Ki67 expression in tumor tissues (p-Akt, p-S6, Ki67): notable reduction in Ki67 expression; phosphorylation of AKT in tumor tissues (p-Akt, p-S6, Ki67): decreased phosphorylation of AKT
